# Measured values from PMC9848300, “Discovery of novel enasidenib analogues targeting inhibition of mutant isocitrate dehydrogenase 2 as antileukaemic agents” (Journal of Enzyme Inhibition and Medicinal Chemistry, 2023).
# Where “and” joins values, the source holds several entries; their conditions need not be identical. Equal values may be shown once.
# Assays:
# [1] = system: SF-295; assay: NCI 60 antitumor screening (single dose / five doses); type: cell-based; conditions: Homo sapiens; for inhibition at 10 µM: SF-295 (CNS cancer), single dose 10 μM, read-out: Growth inhibition percentage (GI %)
# [2] = system: UO-31; assay: as above; type: cell-based; conditions: Homo sapiens; for inhibition at 10 µM: UO-31 (renal cancer), single dose 10 μM, read-out: Growth inhibition percentage (GI %)
# [3] = system: SNB-75; assay: as above; type: cell-based; conditions: Homo sapiens; for inhibition at 10 µM: SNB-75 (CNS cancer), single dose 10 μM, read-out: Growth inhibition percentage (GI %)
# [4] = system: SF-539; assay: as above; type: cell-based; conditions: Homo sapiens; for inhibition at 10 µM: SF-539 (CNS cancer), single dose 10 μM, read-out: Growth inhibition percentage (GI %)
# [5] = system: SN 12C; assay: as above; type: cell-based; conditions: Homo sapiens, SN12C; for inhibition at 10 µM: SN 12C (renal cancer), single dose 10 μM, read-out: Growth inhibition percentage (GI %)
# [6] = system: CCRF-CEM; assay: as above; type: cell-based; conditions: Homo sapiens; CCRF-CEM (leukaemia), single dose 10 μM; read-out: Growth inhibition percentage (GI %)
# [7] = system: K-562; assay: as above; type: cell-based; conditions: Homo sapiens, K562; for inhibition at 10 µM: K-562 (leukaemia), single dose 10 μM, read-out: Growth inhibition percentage (GI %)
# [8] = system: SK-MEL-5; assay: as above; type: cell-based; conditions: Homo sapiens; for inhibition at 10 µM: SK-MEL-5 (melanoma), single dose 10 μM, read-out: Growth inhibition percentage (GI %)
# [9] = system: EKVX; assay: as above; type: cell-based; conditions: Homo sapiens; for inhibition at 10 µM: EKVX (non-small cell lung cancer), single dose 10 μM, read-out: Growth inhibition percentage (GI %)
# [10] = system: T-47D; assay: as above; type: cell-based; conditions: Homo sapiens, T47D; for inhibition at 10 µM: T-47D (breast cancer), single dose 10 μM, read-out: Growth inhibition percentage (GI %)
# [11] = system: HT29; assay: as above; type: cell-based, human; conditions: Homo sapiens; for inhibition at 10 µM: HT-29, HT29 (colon cancer), single dose 10 μM, read-out: Growth inhibition percentage (GI %)
# [12] = system: MALME-3M; assay: as above; type: cell-based; conditions: Homo sapiens; for inhibition at 10 µM: MALME-3M (melanoma), single dose 10 μM, read-out: Growth inhibition percentage (GI %)
# [13] = system: IGROV1; assay: as above; type: cell-based; conditions: Homo sapiens, IGROV-1; for inhibition at 10 µM: IGROV1 (ovarian cancer), single dose 10 μM, read-out: Growth inhibition percentage (GI %)
# [14] = system: UACC-62; assay: as above; type: cell-based; conditions: Homo sapiens; for inhibition at 10 µM: UACC-62 (melanoma), single dose 10 μM, read-out: Growth inhibition percentage (GI %)
# [15] = system: HCT-15; assay: as above; type: cell-based; conditions: Homo sapiens; for inhibition at 10 µM: HCT-15 (colon cancer), single dose 10 μM, read-out: Growth inhibition percentage (GI %)
# [16] = system: MDA-MB-231/ATCC; assay: as above; type: cell-based; conditions: Homo sapiens; for inhibition at 10 µM: MDA-MB-231/ATCC (breast cancer), single dose 10 μM, read-out: Growth inhibition percentage (GI %)
# [17] = system: SK-MEL-2; assay: as above; type: cell-based; conditions: Homo sapiens; for inhibition at 10 µM: SK-MEL-2 (melanoma), single dose 10 μM, read-out: Growth inhibition percentage (GI %)
# [18] = system: HL-60(TB); assay: as above; type: cell-based; conditions: Homo sapiens; for inhibition at 10 µM: HL-60(TB) (leukaemia), single dose 10 μM, read-out: Growth inhibition percentage (GI %)
# [19] = system: COLO 205; assay: as above; type: cell-based; conditions: Homo sapiens; for inhibition at 10 µM: COLO 205 (colon cancer), single dose 10 μM, read-out: Growth inhibition percentage (GI %)
# [20] = system: MOLT-4; assay: as above; type: cell-based; conditions: Homo sapiens; MOLT-4 (leukaemia), single dose 10 μM; read-out: Growth inhibition percentage (GI %)
# [21] = system: NCI/ADR-RES; assay: as above; type: cell-based; conditions: Homo sapiens; for inhibition at 10 µM: NCI/ADR-RES (ovarian cancer), single dose 10 μM, read-out: Growth inhibition percentage (GI %)
# [22] = system: LOX IMVI; assay: as above; type: cell-based; conditions: Homo sapiens; for inhibition at 10 µM: LOX IMVI (melanoma), single dose 10 μM, read-out: Growth inhibition percentage (GI %)
# [23] = system: 60 human subpanel cancer cell lines; assay: NCI 60 antitumor screening, mean over the panel (single dose); type: cell-based; conditions: mean over 60 cancer cell lines, single dose 10 μM
# Method in brief: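 Values are GI% (100 − G%) from the NCI 60-line single-dose screen, compound at 10 μM.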
# [24] = system: SK-MEL-28; assay: NCI 60 antitumor screening (single dose / five doses); type: cell-based; conditions: Homo sapiens; for inhibition at 10 µM: SK-MEL-28 (melanoma), single dose 10 μM, read-out: Growth inhibition percentage (GI %)
# [25] = system: A498; assay: as above; type: cell-based; conditions: Homo sapiens; for inhibition at 10 µM: A498 (renal cancer), single dose 10 μM, read-out: Growth inhibition percentage (GI %)
# [26] = system: HCT-116; assay: as above; type: cell-based; conditions: Homo sapiens; for inhibition at 10 µM: HCT-116 (colon cancer), single dose 10 μM, read-out: Growth inhibition percentage (GI %)
# [27] = system: SW-620; assay: as above; type: cell-based, human; conditions: Homo sapiens; for inhibition at 10 µM: SW-620 (colon cancer), single dose 10 μM, read-out: Growth inhibition percentage (GI %)
# [28] = system: MDA-MB-468; assay: as above; type: cell-based; conditions: Homo sapiens; for inhibition at 10 µM: MDA-MB-468 (breast cancer), single dose 10 μM, read-out: Growth inhibition percentage (GI %)
# [29] = system: ACHN; assay: as above; type: cell-based; conditions: Homo sapiens; for inhibition at 10 µM: ACHN (renal cancer), single dose 10 μM, read-out: Growth inhibition percentage (GI %)
structure (smiles),measurement,setting,value
"Fc1cccc(Cl)c1/C=N/Nc1nc(N/N=C/c2c(F)cccc2Cl)nc(N2CCCCC2)n1 [compound 7l, 2,4-Bis[(E)-2-[(2-Chloro-6-fluorophenyl)methylidene]hydrazin-1-yl]-6-(piperidin-1-yl)-1,3,5-triazine]",inhibition at 10 µM,[1],97.4%
same,GI50,"[1]; SF-295, five doses (0.01–100 μM), read-out: GI50",1010 nM
same,inhibition at 10 µM,[2],91%
same,GI50,"[2]; UO-31, five doses (0.01–100 μM), read-out: GI50",2010 nM
same,inhibition at 10 µM,[3],62.5%
same,GI50,"[3]; SNB-75, five doses (0.01–100 μM), read-out: GI50",2360 nM
same,inhibition at 10 µM,[4],43.8%
same,GI50,"[4]; SF-539, five doses (0.01–100 μM), read-out: GI50",7650 nM
same,inhibition at 10 µM,[5],76.8%
same,GI50,"[5]; SN 12C, five doses (0.01–100 μM), read-out: GI50",2850 nM
same,inhibition at 10 µM,[6],77.7%
same,inhibition at 10 µM,[7],67.7%
same,GI50,"[7]; K-562, five doses (0.01–100 μM), read-out: GI50",3080 nM
same,inhibition at 10 µM,[8],41%
same,GI50,"[8]; SK-MEL-5, five doses (0.01–100 μM), read-out: GI50",1880 nM
same,inhibition at 10 µM,[9],86.2%
same,GI50,"[9]; EKVX, five doses (0.01–100 μM), read-out: GI50",1540 nM
same,inhibition at 10 µM,[10],89%
same,GI50,"[10]; T-47D, five doses (0.01–100 μM), read-out: GI50",1710 nM
same,GI50,"[11]; HT-29, HT29, five doses (0.01–100 μM), read-out: GI50",2900 nM
same,inhibition at 10 µM,[11],96.5%
same,inhibition at 10 µM,[12],95.8%
same,GI50,"[12]; MALME-3M, five doses (0.01–100 μM), read-out: GI50",2210 nM
same,inhibition at 10 µM,[13],82.3%
same,GI50,"[13]; IGROV1, five doses (0.01–100 μM), read-out: GI50",3160 nM
same,inhibition at 10 µM,[14],81.7%
same,GI50,"[14]; UACC-62, five doses (0.01–100 μM), read-out: GI50",2350 nM
same,inhibition at 10 µM,[15],96.1%
same,GI50,"[15]; HCT-15, five doses (0.01–100 μM), read-out: GI50",2820 nM
same,GI50,"[16]; MDA-MB-231/ ATCC, five doses (0.01–100 μM), read-out: GI50",7650 nM
same,inhibition at 10 µM,[16],57.9%
same,inhibition at 10 µM,[17],126%
same,GI50,"[17]; SK-MEL-2, five doses (0.01–100 μM)",1690 nM
same,inhibition at 10 µM,[18],98.7%
same,GI50,"[18]; HL-60(TB), five doses (0.01–100 μM), read-out: GI50",2000 nM
same,inhibition at 10 µM,[19],117%
same,GI50,"[19]; COLO 205, five doses (0.01–100 μM), read-out: GI50",1780 nM
same,inhibition at 10 µM,[20],86.3%
same,inhibition at 10 µM,[21],84.8%
same,GI50,"[21]; NCI/ADR-RES, five doses (0.01–100 μM), read-out: GI50",2760 nM
same,inhibition at 10 µM,[22],80.4%
same,GI50,"[22]; LOX IMVI, five doses (0.01–100 μM), read-out: GI50",3770 nM
same,Mean GI %,[23],81% and 81.15%
same,inhibition at 10 µM,[24],55.1%
same,GI50,"[24]; SK-MEL-28, five doses (0.01–100 μM), read-out: GI50",3410 nM
same,inhibition at 10 µM,[25],47.2%
same,GI50,"[25]; A498, five doses (0.01–100 μM), read-out: GI50",2400 nM
same,inhibition at 10 µM,[26],80.5%
same,GI50,"[26]; HCT-116, five doses (0.01–100 μM), read-out: GI50",2830 nM
same,GI50,"[27]; SW-620, SW-620, five doses (0.01–100 μM), read-out: GI50",3510 nM
same,inhibition at 10 µM,[27],82.8%
same,inhibition at 10 µM,[28],114%
same,GI50,"[28]; MDA-MB-468, five doses (0.01–100 μM), read-out: GI50",1860 nM
same,inhibition at 10 µM,[29],95.8%
same,GI50,"[29]; ACHN, five doses (0.01–100 μM), read-out: GI50",3040 nM
"O=C1Nc2ccc(Cl)cc2/C1=N\Nc1nc(N/N=C2/C(=O)Nc3ccc(Cl)cc32)nc(N2CCOCC2)n1 [compound 8b, (3E)-5-Chloro-3-[2–(4-{2-[(3E)-5-chloro-2-oxo-2,3-dihydro-1H-indol-3-ylidene]hydrazin-1-yl}6-(morpholin-4-yl)-1,3,5-triazin-2-yl)hydrazin-1-ylidene]-2,3-dihydro-1H-indol-2-one]",inhibition at 10 µM,[1],54.4%
same,inhibition at 10 µM,[2],21.4%
same,inhibition at 10 µM,[3],101%
same,inhibition at 10 µM,[4],84%
same,inhibition at 10 µM,[5],56.1%
same,inhibition at 10 µM,[6],79.8%
same,inhibition at 10 µM,[7],67.1%
same,inhibition at 10 µM,[8],53.9%
same,inhibition at 10 µM,[9],14.8%
same,inhibition at 10 µM,[10],70.7%
same,inhibition at 10 µM,[11],8.9%
same,inhibition at 10 µM,[12],43.6%
same,inhibition at 10 µM,[13],45%
same,inhibition at 10 µM,[14],48.4%
same,inhibition at 10 µM,[15],8.4%
same,inhibition at 10 µM,[16],63.7%
same,inhibition at 10 µM,[17],34.7%
same,inhibition at 10 µM,[18],27.8%
same,inhibition at 10 µM,[19],51.3%
same,inhibition at 10 µM,[20],37.5%
same,inhibition at 10 µM,[21],1.85%
same,inhibition at 10 µM,[22],76.8%
same,Mean GI %,[23],47.89%
same,inhibition at 10 µM,[24],45%
same,inhibition at 10 µM,[25],78.4%
same,inhibition at 10 µM,[26],54.6%
same,inhibition at 10 µM,[27],25.7%
same,inhibition at 10 µM,[28],76.4%
same,inhibition at 10 µM,[29],25.5%
